Read-outs that look alike come from different tables or passages of the source.
Tests used:
Type in all cases: cell-based
[1] = tested on: HSV-2 35D; test: Plaque reduction assay, HSV-2 35D; details: Table 1, plaque reduction, Vero cells
Description: (§1) Antiviral activity of compounds against herpesviruses such as HSV-1, HSV-2, or HCMV can be measured using plaque reduction assays. 0.1 ml of media containing approximately 50 PFU of virus is added to each well of a 24-well cell culture dish containing a confluent monolayer of cells (Vero cells for HSV-1 and HSV-2, HFF cells for HCMV). Compounds are dissolved in 100% DMSO and diluted in 100% DMSO as 200× stocks of the desired final drug concentration. Typically 5-6 two-fold dilutions are prepared for each compound. Dilutions of compounds are then added to media containing 0.8% CMC resulting in a final 1× drug concentration. After the virus-infected cells have incubated for 1 h at 37° C., the virus innoculum is removed and 1 ml of media containing 0.8% CMC and the various concentrations of compound is added to each well of the dish. The dish is incubated at 37° C. for approximately 2-3 days (HSV-1 and HSV-2) or 6-9 days (HCMV) to allow sufficient growth of virus to form plaques in the cell monolayer. Plaques can be observed and counted microscopically or by staining the cells with 0.1% crystal violet in 20% ethanol. […] Antiviral activity of a compound is expressed as the concentration of compound predicted to reduce the number of plaques in a well by 50% (IC50). The IC50 values are calculated by plotting the per cent inhibition vs. concentration of compound using EXCEL software for linear regression.
(§2) A panel of viruses consisting of four strains of HSV-1 (KOS, F, DJL, Patton) and three strains of HSV-2 (MS, 35D, 186) are tested in a plaque reduction assay against four different 4-oxo-DHQ compounds (#1, 2, 4, 5 as shown in FIG. 1), and one 4-oxo-DHTP compound (#3 as shown in FIG. 1) and against Acyclovir. The six drugs inhibited replication of the seven virus strains with IC50 values ranging from 2-10 μM (Table 1). In order to select for 4-oxo-DHQ resistant mutants, HSV-1 strains KOS, F, and DJL along with HSV-2 strains 186 and MS are serially passaged in the presence of 20 uM compound 1. Following the seventh passage, 4-oxo-DHQ resistant virus from each strain are plaque purified three times and high-titer stocks are made.

[2] = tested on: HSV-1 Patton; test: Plaque reduction assay, HSV-1 Patton; details: Table 1, plaque reduction, Vero cells
Description: as §1, §2

[3] = tested on: HSV-2 186; test: Plaque reduction assay, HSV-2 186; details: Table 1, plaque reduction, Vero cells
Description: as §1, §2

[4] = tested on: HSV-2 MS-M1 (V826A); test: Plaque reduction assay, 4-oxo-DHQ resistant HSV-2 MS-M1; details: Table 5, mutant selected for 4-oxo-DHQ resistance; read-out: Plaque Reduction Assay - IC50 (μM) HSV-2 MS-M1
Description: as §1
(§3) Vero cells are plated out at a density of 3.5×10^5 cells per well in a six well tissue culture plate. Cells are infected with HSV-1 KOS at a multiplicity of infection (moi) of 0.1 pfu/cell and 1 h post infection the cells are overlayed with 3 ml media containing 20 uM of a 4-oxo-DHQ. Cultures are incubated for 20 h at 37° C., freeze/thawed to release cell-associated virus, and 0.1 ml of culture is used to infect a new monolayer of Vero cells (one passage). Serial passage is repeated seven times in the presence of 20 uM drug. Virus isolates are then plaque purified three times prior to preparation of stocks. 4-oxo-DHQ resistant HSV-1 and HSV-2 may also be selected by the marker transfer method described below using wild-type HSV DNA and the corresponding mutant HSV polymerase gene.
as §2

[5] = tested on: HSV-1 KOS-M1 (V823A); test: Plaque reduction assay, 4-oxo-DHQ resistant HSV-1 KOS-M1; details: Table 5, mutant selected for 4-oxo-DHQ resistance; read-out: Plaque Reduction Assay - IC50 (μM) HSV-1 KOS-M1
Description: as §1, §3, §2

[6] = tested on: HSV-1 F; test: Plaque reduction assay, HSV-1 F; details: Table 1, plaque reduction, Vero cells
Description: as §1, §2

[7] = tested on: HCMV AD169; test: Plaque reduction assay, HCMV AD169; details: Table 5, wild type strain; read-out: Plaque Reduction Assay - IC50 (μM) HCMV AD169
Description: as §1

[8] = tested on: HSV-1 DJL; test: Plaque reduction assay, HSV-1 DJL; details: Table 1, plaque reduction, Vero cells
Description: as §1, §2

[9] = tested on: HSV-2 MS; test: Plaque reduction assay, HSV-2 MS
Description: as §1, §2

[10] = tested on: HSV-1 KOS; test: Plaque reduction assay, HSV-1 KOS
Description: as §1, §2

[11] = tested on: HCMV AD169-M1 (V823A, V824L); test: Plaque reduction assay, 4-oxo-DHQ resistant HCMV AD169-M1; details: Table 5, mutant selected for 4-oxo-DHQ resistance; read-out: Plaque Reduction Assay - IC50 (μM) HCMV AD169-M1
Description: as §1
A plasmid containing the wild-type HCMV polymerase gene is modified to contain the V823A or V823A and V824L mutations using a site-directed mutagenesis Kit (Stratagene Corp.) and following the manufactures's protocol. HFF cells are plated into T25 tissue culture flasks to achieve 80% confluency at the time of the transfection. Wild type HCMV AD 169 DNA and plasmid DNA containing the mutant HCMV polymerase gene are mixed at a ratio of 1:2 (2 ug of viral DNA to 4 ug of plasmid DNA). DNA's are transfected using superfect transfection reagent according to methods recommended by the manufacturer (Quiagen Inc.). Cells are harvested five days posttransfection, freeze-thawed to release virus and half of the sample is used to infect HFF cell monolayers. Cells are overlayed with media containing 20 uM 4-oxo-DHQ compound 2 (see FIG. 1). Serial passage is repeated seven times in the presence of 20 uM compound 2 and virus isolates are then plaque purified three times prior to preparation of viral stock.
In order to isolate an HCMV resistant mutant marker rescue experiments are done. Plasmids containing the mutant polymerase genes are transfected into HFF cells along with wild type HCMV AD169 DNA. The resulting virus is then serially passaged in the presence of 20 uM compound 1 (see FIG. 1). A 4-oxo-DHQ resistant virus is isolated from marker rescue studies done with the HCMV polymerase gene containing mutations that result in the V823A, V824L amino acid changes, but not with the gene containing V823A change alone.

**Q.** With `Cn1cc(C(=O)NCc2ccc(Cl)cc2)c(=O)c2cc(CN3CCOCC3)ccc21` [Compound 2] as the compound, how does the IC50 [1] read?
**A.** 5.4 µM

**Q.** What about the IC50 [2] of the same compound?
**A.** 5.3 µM

**Q.** And the IC50 [3]?
**A.** 2.3 µM

**Q.** What about the IC50 [4] of the same compound?
**A.** > 50 µM

**Q.** And the IC50 [5]?
**A.** > 50 µM

**Q.** And the IC50 [6]?
**A.** 2.3 µM

**Q.** What about the IC50 [7] of the same compound?
**A.** 0.4 µM

**Q.** What about the IC50 [8] of the same compound?
**A.** 2.6 µM

**Q.** And the IC50 ([9]; Table 1, plaque reduction, Vero cells, read-out: IC50 (uM), HSV-2 MS)?
**A.** 2.5 µM

**Q.** And the IC50 ([9]; Table 5, wild type strain, read-out: Plaque Reduction Assay - IC50 (μM) HSV-2 MS)?
**A.** 1.3 µM

**Q.** What about the IC50 ([10]; Table 1, plaque reduction, Vero cells, read-out: IC50 (uM), HSV-1 KOS) of the same compound?
**A.** 3.8 µM

**Q.** And the IC50 ([10]; Table 5, wild type strain, read-out: Plaque Reduction Assay - IC50 (μM) HSV-1 KOS)?
**A.** 3.3 µM

**Q.** And the IC50 [11]?
**A.** 4 µM

Reference: patent US6682892B2, “Method for treating herpes viruses” (priority 2000, dated 2004)
